According to patent US8795222B2, “Device and method for treatment of surface infections with nitric oxide” (Pulmonox Technologies Corp., priority 2000, dated 2014):

Experiments:
[1] = tested on: non-healing venous leg ulcer; test: Human case study, non-healing venous leg ulcer, topical gNO; format: in vivo
Text: This case study involved a person with a 30 year history of severe venous disease, both deep and superficial, related to deep vein thrombophlebitis. Initially, while, the patient developed bilateral non-healing venous leg ulcers that were surgically treated. The surgical sites healed but the ulcers continued to recur. Initially, the patient presented with a small ulcer located just below the medial malleolus of the left ankle.
Arrangements were made to meet at the patient's home the following day to set up the equipment and for them to have a repeat training on the use of the treatment system. Training included use of the system as well as safety information on using the gas equipment.
Nitric oxide gas (ViaNOx-H, VIASYS Healthcare, Yorba Linda, Calif., USA) was applied to the lower extremity with use of a gas-diluting delivery system (CidaNOx Delivery System) designed specifically for the study (PulmoNOx Medical Inc., Edmonton, Alberta, Canada). This CidaNOx delivery system contains an internal air pump for dilution of the gNO and a flow control circuit to dilute the 800 parts per million (ppm) in the NO source cylinder down to the therapeutic level of 200 ppm. The total flow from the system was 1.0 L/min and included one-quarter of a liter per minute (250 ml/min) flow of gNO. Several internal pressure sensors assure the dilution flow is operational and monitor the system. The flow of nitric oxide was limited to 250 ml/min by a mechanically set pressure regulator and a mechanical flowmeter that have no external controls that could be changed by the patient. The concentration of nitric oxide delivered was assured by measurement of the CidaNOx output with a calibrated nitric oxide analyzer (AeroNOx, Pulmonox Medical Inc.) that is approved for monitoring inhaled NO in human patients.
The 200 ppm gNO from the CidaNOx Delivery System flowed out to a single patient use plastic boot that covered the patient's lower extremity. […] A secondary air outlet from the CidaNOx unit managed the inflation of the cuff. The patient connected the pump outlet to the cuff connector until it was inflated and then the connector was sealed closed with the provided clamp. […]
To explore the potential for wound bed preparation and accelerated wound healing from prolonged use, treatment regimen beyond three days was chosen and which was stopped at 14 days to evaluate the short-term effects and explore the possibility that the short-term effects would improve the longer-term outcome. […] The patient recorded the date, time, and duration of each treatment period on a data sheet, and any significant observations related to the wound, treatment, or equipment. The wound size (cm^2) was measured using digital photography and densitometry technique (Scion Image −4.02, Scion Corp., Frederick Md., USA). […]

[2] = tested on: S. aureus; test: gNO dose study, colony growth on agar plates; format: cell-based
Experimental: FIG. 6 depicts a S. aureus dosage curve for exposure to gaseous NO (gNO) with bacteria grown on solid media. Relative percentages of growth of S. aureus colony forming units (cfu) at 50, 80, 120 and 160 parts per million (ppm) of nitric oxide compared with growth of S. aureus cfu in medical air (100%) are shown.
To study the effects of gaseous nitric oxide on potential pathogens, a custom gas exposure incubator was designed and validated for temperature, humidity, and gas concentrations, providing an environment that matches that of a microbiologic incubator, while enabling controlled exposure of precise concentrations of the gas. […] The gNO chamber allowed control and adjustment of following factors in all in vitro studies: gNO dose, total air flow, NO2 levels, O2 levels, CO2 levels, temperature, and humidity. For the initial pilot studies, two strains of bacterial pathogen were selected based on two proposed clinical applications of gNO for respiratory infections and topical application. P. aeruginosa is associated primarily with pulmonary disease, but may also be associated with skin infection such as in severe burns. S. aureus is associated with surface wound infections. Both of these micro-organisms were chosen for the pilot study.
The first step in the process of evaluating the direct effect of gNO on bacteria was to design a simple study to determine what dose, if any, would be an approximate lethal concentration level for microbes. Once an optimal dose was estimated, then a timing study would be conducted. For these initial studies, highly dense inoculums of P. aeruginosa and S. aureus suspensions (10^8 cfu/ml) were plated onto agar plates. These plates were then exposed to various concentrations of gNO in the exposure device in order to evaluate the effect on colony growth.

[3] = tested on: human endothelial cells; test: Tube formation in matrigel; format: cell-based; conditions: 200 ppm NO versus air, 8 hours or 24 hours
Experimental: Left panels at 8 hours of exposure. Right panels at 24 hours of exposure.

## [N]=O [gNO, nitric oxide]
[1]; 26 weeks post NO discontinuation
  ulcer status: completely healed and reepithelialized
[1]; 200 ppm gNO nightly, day 3, 24 hours cumulative exposure, p=0.014
  wound size, day 3: Significant wound size reduction
[1]; 200 ppm gNO nightly, end of therapy at day 14
  reduction in wound area: approximately 75%
[1]; six weeks after the end of 14-day 200 ppm gNO treatment
  wound healed: about 90%
[2]; 24 hours after gNO exposure, controls overgrew
  colony size and number after transfer to a conventional incubator: remained the same in size and number
[2]; gNO greater than 120 ppm, agar plates
  time required to achieve the >90% reduction of colony formation: 8 to 12 h
[2]; gNO greater than 120 ppm, agar plates, compared with medical air
  reduction of colony formation: greater than 90%
[2]; increasing gNO to 120 ppm, agar plates
  survival: 5-10%
[3]
  tube formation: no significant difference
